What was measured:
[1] = tested on: HBsAg-specific antibodies (anti-HBs); design: species or system BALB/c mice; conditions: mouse, in vivo
[2] = tested on: HBsAg-specific antibodies; design: species or system BALB/c mice; conditions: mouse, in vivo, po
[3] = tested on: HBsAg-specific antibodies (anti-HBs); design: species or system BALB/c mice; conditions: mouse, in vivo, po
[4] = in vivo; cited from earlier work

Row | Substance | enhancement of immune responses (anti-HBs) with IM delivery [1] | HBsAg-specific IgG in plasma [2] | HBsAg-specific IgG titers, non-CpG ODN versus equivalent dose of CpG ODN [3] | anti-HBs IgG titers in plasma [3] | antibody isotypes (IgG1 Th2-like, IgG2a Th1-like) as indication of Th-bias [3] | dose causing severe diarrhea [4] [µg]
1 | 5′-TCCAGGACTTCTCTCAGGTT-3′ [non-CpG ODN #1982] | not | now detected | no significant difference | much higher levels | predominance of IgG1 | 
2 | Cholera toxin [CT] |  |  |  | much higher levels | predominance of IgG1 | 1 to 5
3 | TCCATGACGTTCCTGACGTT [CpG ODN #1826] | enhancement of immune responses | now detected |  | much higher levels | equally mixed Th1/Th2 response | 
